Where two headings read alike, the source gives them in different places. Square brackets hold non-standard residues; d marks the D form. Peptide text beside a SMILES is read from it. * marks the point of attachment. Piperidin1yl(4-NH2,4-COOH) = NC1(C(=O)O)CCN(*)CC1; dPhLac = O=C(O)[C@H](O)Cc1ccccc1; X4 = COC(=O)NC1CCN(*)CC1
Columns and labels:
κ receptor = κ receptor (Homo sapiens (Human), UniProt P41145); assay: Competitive Kappa receptor binding assay (3H-U69593)
μ receptor = μ receptor (Homo sapiens (Human), UniProt P35372); assay: μ receptor affinity assay (3H-DAMGO); assay type: binding
δ receptor = δ receptor (Homo sapiens (Human), UniProt P41143); assay: Competitive delta receptor binding assay (3H-DADLE)
[1] = biological target: κ-opioid receptor (Kappa) (Homo sapiens (Human), UniProt P41145); assay: In vitro functional assay, HTRF cAMP-Gi in CHO-K1-OPRK1 cells; assay type: cell-based
[2] = PK and blood-brain barrier permeability in mice; assay type: in vivo; details: male ICR mice, intravenous 1 mg/kg
Experimental: The compounds of the present disclosure were investigated for pharmacokinetic characteristics and blood-brain barrier permeability in mice.
Healthy male ICR mice were randomly grouped, 6 animals per group. For each test compound, 3 groups of animals were used. The first group of animals was used for collecting blood and brain 5 min after the administration, and the second group of animals and the third group of animals were used for cross blood collection at subsequent time points; each test compound was intravenously administered (1 mg/kg) to corresponding groups of mice, and blood sampling via submaxillary veins of the mice was carried out at different time points. Drug contents in plasma and brain tissues at different time points were measured by an LC-MS/MS method, the brain-to-blood ratio B/P was calculated by using EXCEL software, and pharmacokinetic parameters were calculated by using DAS3.0 software.

[3] = read-out: In vitro agonistic effects on k-opioid receptors EC50
[4] = CHO-K1-Kappa membranes, 3H-U69593 2 nM, read-out: κ receptor Ki
[5] = CHO-K1-μ membranes, 3H-DAMGO 2 nM, read-out: μ receptor Ki
[6] = CHO-K1-delta membranes, 3H-DADLE 4 nM, read-out: δ receptor Ki
[7] = CHO-K1-OPRK1 cells, cAMP, 1 μM Forskolin, read-out: In vitro agonistic effects on k-opioid receptors EC50

| Molecule | Ki (κ receptor) | Ki (μ receptor) | Ki (δ receptor) | EC50 [1] | also measured |
| --- | --- | --- | --- | --- | --- |
| CC(C)C[C@@H](NC(=O)[C@@H](Cc1ccccc1)NC(=O)N(CCN)Cc1ccccc1)C(=O)N[C@H](CCCCN)C(=O)N1CCC(F)(C(=O)O)CC1 [Compound 34] | 0.6 nM | > 1000 nM | > 1000 nM | 0.71 nM | – |
| COC(=O)NC1CCN(C(=O)[C@@H](C)NC(=O)[C@@H](CC(C)C)NC(=O)[C@@H](Cc2ccccc2)NC(=O)[C@H](N)Cc2ccccc2)CC1 [Compound 12A] (H-[dF][dF][dL][dA]-X4) | 0.34 nM | > 1000 nM | > 1000 nM | 0.07 nM | – |
| COC(=O)C1(N)CCN(C(=O)[C@@H](CCCCN)NC(=O)[C@@H](CC(C)C)NC(=O)[C@@H](Cc2ccccc2)NC(=O)N(C)C(CN)c2ccccc2)CC1 (stereo partly drawn) [Compound 14] | 1.1 nM | > 1000 nM | > 1000 nM | 8.2 nM | – |
| CNC(=O)NC1CCN(C(=O)[C@@H](CCCCN)NC(=O)[C@@H](CC(C)C)NC(=O)[C@@H](Cc2ccccc2)NC(=O)N(CCN)Cc2ccccc2)CC1 [Compound 17] | 0.44 nM | > 1000 nM | > 1000 nM | 0.3 nM | – |
| COC(=O)N1CCN(C(=O)[C@@H](CCCCN)NC(=O)[C@@H](CC(C)C)NC(=O)[C@@H](Cc2ccccc2)NC(=O)N(CCN)Cc2ccccc2)CC1 [Compound 46] | 0.29 nM | > 1000 nM | > 1000 nM | 0.22 nM | – |
| CC(C)C[C@@H](NC(=O)[C@@H](Cc1ccccc1)NC(=O)N(C)C(CN)c1ccccc1)C(=O)C[C@H](CCCCN)C(=O)N1CCC(N)(C(=O)OC(C)C)CC1 (stereo partly drawn) [Compound 15] | – | – | – | – | Ki (κ receptor; read-out: κ receptor Ki): 0.83 nM; Ki (μ receptor; read-out: μ receptor Ki): > 1000 nM; Ki (δ receptor; read-out: δ receptor Ki): > 1000 nM; EC50 [1, 3]: 0.63 nM |
| CC(C)C[C@@H](NC(=O)[C@@H](Cc1ccccc1)NC(=O)N(CCN)CC1CC1)C(=O)N[C@H](CCCCN)C(=O)N1CCC(N)(C(=O)O)CC1 [Compound 48] | 3.79 nM | > 1000 nM | > 1000 nM | 12 nM | – |
| CC(=O)NC1CCN(C(=O)[C@@H](CCCCN)NC(=O)[C@@H](CC(C)C)NC(=O)[C@@H](Cc2ccccc2)NC(=O)N(CCN)Cc2ccccc2)CC1 [Compound 45] | 0.52 nM | > 1000 nM | > 1000 nM | 0.16 nM | – |
| (2R)-2-[(2R)-2-{[(2-amino-1-phenylethyl)(methyl)carbamoyl)amino}-3-phenylpropionylamino]-N-[(2R)-6-amino-1-{4-[(methylcarbamoyl)amino]piperidin-1-yl}-1-oxohexyl-2-yl]-4-methylpentanamide [Compound 8] | – | – | – | – | Ki (κ receptor; read-out: κ receptor Ki): 0.09 nM; Ki (μ receptor; read-out: μ receptor Ki): > 1000 nM; Ki (δ receptor; read-out: δ receptor Ki): > 1000 nM; EC50 [1, 3]: 0.9 nM |
| CN=S1(=O)CCN(C(=O)[C@@H](CCCCN)NC(=O)[C@@H](CC(C)C)NC(=O)[C@@H](Cc2ccccc2)NC(=O)N(CCN)Cc2ccccc2)CC1 [Compound 20] | 0.58 nM | > 1000 nM | > 1000 nM | 0.52 nM | – |
| COC(=O)NC1CCN(C(=O)[C@@H](C)NC(=O)[C@@H](CC(C)C)NC(=O)[C@@H](Cc2ccccc2)NC(=O)N(CCN)Cc2ccccc2)CC1 [Compound 42] | 0.47 nM | > 1000 nM | > 1000 nM | 0.46 nM | – |
| CC(C)C[C@@H](NC(=O)[C@@H](Cc1ccccc1)NC(=O)N(CCN)Cc1cccnc1)C(=O)C[C@H](CCCCN)C(=O)N1CCC(N)(C(=O)O)CC1 [Compound 18] | – | – | – | – | Ki (κ receptor; read-out: κ receptor Ki): 0.21 nM; Ki (μ receptor; read-out: μ receptor Ki): > 1000 nM; Ki (δ receptor; read-out: δ receptor Ki): > 1000 nM; EC50 [1, 3]: 0.18 nM |
| CC(C)C[C@@H](NC(=O)[C@@H](Cc1ccccc1)NC(=O)[C@H](N)Cc1ccccc1)C(=O)N[C@H](CCCCN)C(=O)N1CCC(N)(C(=O)O)CC1 [CR845, D-Phe-D-Phe-D-Leu-D-Lys-[ω(4-aminopiperidine-4-carboxylic acid)]-OH, reference compound] | – | – | – | – | B/P (brain-to-blood ratio) ([2]; blood and brain 5 min after administration): 0.015; AUC(0-inf) ([2]; mouse, plasma): 653 ng·h/mL; Vd ([2]; mouse, plasma): 0.6 L/kg; clearance ([2]; mouse, plasma): 27 mL/min/kg; half-life ([2]; mouse, plasma, read-out: t½ (converted)): 15.6 min; Cmax ([2]; mouse, plasma): 1620 ng/mL |
| CNCCN(Cc1ccccc1)C(=O)N[C@H](Cc1ccccc1)C(=O)N[C@H](CC(C)C)C(=O)C[C@H](CCCCN)C(=O)N1CCC(N)(C(=O)O)CC1 [Compound 28] | – | – | – | – | Ki (κ receptor; read-out: κ receptor Ki): 3.31 nM; Ki (μ receptor; read-out: μ receptor Ki): > 1000 nM; Ki (δ receptor; read-out: δ receptor Ki): > 1000 nM |
| CC(C)C[C@@H](NC(=O)[C@@H](Cc1ccccc1)NC(=O)N(CCN)Cc1ccc(F)cc1)C(=O)C[C@H](CCCCN)C(=O)N1CCC(N)(C(=O)O)CC1 [Compound 50] | – | – | – | – | Ki (κ receptor; read-out: κ receptor Ki): 0.27 nM; Ki (μ receptor; read-out: μ receptor Ki): > 1000 nM; Ki (δ receptor; read-out: δ receptor Ki): > 1000 nM; EC50 [1, 3]: 0.43 nM |
| CC(=O)N1CCN(C(=O)[C@@H](CCCCN)NC(=O)[C@@H](CC(C)C)NC(=O)[C@@H](Cc2ccccc2)NC(=O)N(CCN)Cc2ccccc2)CC1 [Compound 47] | 0.49 nM | > 1000 nM | > 1000 nM | 0.24 nM | – |

| Molecule | Ki (κ receptor) | Ki (μ receptor) | Ki (δ receptor) | EC50 [1] | also measured |
| --- | --- | --- | --- | --- | --- |
| COC(=O)N=S1(=O)CCN(C(=O)[C@@H](CCCCN)NC(=O)[C@@H](CC(C)C)NC(=O)[C@@H](Cc2ccccc2)NC(=O)[C@H](N)Cc2ccccc2)CC1 [Compound 4B] | 1.88 nM | > 1000 nM | > 1000 nM | 0.65 nM | – |
| CC(C)C[C@@H](NC(=O)[C@@H](Cc1ccccc1)NC(=O)C[C@H](N)c1ccccc1)C(=O)N[C@H](CCCCN)C(=O)N1CCC(N)(C(=O)O)CC1 [Compound 4-100, 4-amino-1-[(2R)-6-amino-2-[(2R)-2-[(2R)-2-[(3S)-3-amino-3-phenylpropionylamino]-3-phenylpropionylamino]-4-methylpentanoylamino]hexanoyl]piperidine-4-carboxylic acid] | 59.9 nM | > 1000 nM | > 1000 nM | – | – |
| CC(C)C[C@@H](NC(=O)[C@@H](Cc1ccccc1)NC(=O)N(CCN)Cc1ccccc1)C(=O)N[C@H](CCCCN)C(=O)N1CCOCC1 [Compound 39] | 0.27 nM | > 1000 nM | > 1000 nM | 0.35 nM | – |
| CC(C)C[C@@H](NC(=O)[C@@H](Cc1ccccc1)NC(=O)N(CCN)Cc1ccccc1)C(=O)N[C@H](CCCCN)C(=O)N1CCC(NC(=O)OC2CCOCC2)CC1 [Compound 24] | 0.36 nM | > 1000 nM | > 1000 nM | 0.27 nM | – |
| CC(C)C[C@@H](NC(=O)[C@@H](Cc1ccccc1)NC(=O)[C@H](O)Cc1ccccc1)C(=O)N[C@H](CCCCN)C(=O)N1CCC(N)(C(=O)O)CC1 [Compound 3] (H-[dPhLac][dF][dL][dK]-{Piperidin1yl(4-NH2,4-COOH)}) | 3.31 nM | > 1000 nM | > 1000 nM | – | – |
| CC(C)C[C@@H](NC(=O)[C@@H](Cc1ccccc1)NC(=O)N(C)C(CN)c1ccccc1)C(=O)N[C@H](CCCCN)C(=O)N1CCOCC1 (stereo partly drawn) [Compound 37] | 0.41 nM | > 1000 nM | > 1000 nM | 0.39 nM | – |
| CC(C)C[C@@H](NC(=O)[C@@H](Cc1ccccc1)NC(=O)N(C)C(CN)c1ccccc1)C(=O)N[C@H](CCCCN)C(=O)N1CCNCC1 (stereo partly drawn) [Compound 38] | 0.17 nM | > 1000 nM | > 1000 nM | 0.54 nM | – |
| CNS(=O)(=O)NC1CCN(C(=O)[C@@H](CCCCN)NC(=O)[C@@H](CC(C)C)NC(=O)[C@@H](Cc2ccccc2)NC(=O)N(CCN)Cc2ccccc2)CC1 [Compound 26] | – | – | – | – | Ki (κ receptor; [4]): 0.31 nM; Ki (μ receptor; [5]): > 1000 nM; Ki (δ receptor; [6]): > 1000 nM; EC50 [1, 7]: 0.25 nM |
| CC(C)C[C@@H](NC(=O)[C@@H](Cc1ccccc1)NC(=O)N(CCN)Cc1ccccc1)C(=O)N[C@H](CCCCN)C(=O)N1CCC(C#N)CC1 [Compound 35] | 0.18 nM | > 1000 nM | > 1000 nM | 0.17 nM | – |
| CC(C)C[C@@H](NC(=O)[C@@H](Cc1ccccc1)NC(=O)N(CCN)Cc1ccccc1)C(=O)N[C@H](CCCCN)C(=O)N1CCNCC1 [Compound 40] | 0.58 nM | > 1000 nM | > 1000 nM | 0.13 nM | – |
| CC(C)C[C@@H](NC(=O)[C@@H](Cc1ccccc1)NC(=O)N(CCN)Cc1cncnc1)C(=O)C[C@H](CCCCN)C(=O)N1CCC(N)(C(=O)O)CC1 [Compound 19] | – | – | – | – | Ki (κ receptor; read-out: κ receptor Ki): 0.9 nM; Ki (μ receptor; read-out: μ receptor Ki): > 1000 nM; Ki (δ receptor; read-out: δ receptor Ki): > 1000 nM; EC50 [1, 3]: 0.87 nM |
| CC(C)C[C@@H](NC(=O)[C@@H](Cc1ccccc1)NC(=O)N(CCN)Cc1ccccc1)C(=O)N[C@H](CCCCN)C(=O)N1CCC2(CC1)OC(=O)Nc1ncccc12 [Compound 22] | – | – | – | – | Ki (κ receptor; [4]): 0.35 nM; Ki (μ receptor; [5]): > 1000 nM; Ki (δ receptor; [6]): > 1000 nM; EC50 [1, 7]: 0.36 nM |
| CC(=O)N(CCCN)C1CCN(C(=O)[C@@H](C)CC(=O)[C@@H](CC(C)C)NC(=O)[C@H](CC(=O)N(CCN)Cc2ccccc2)Cc2ccccc2)CC1 [Compound 44] | – | – | – | – | Ki (κ receptor; read-out: κ receptor Ki): 0.55 nM; Ki (μ receptor; read-out: μ receptor Ki): > 1000 nM; Ki (δ receptor; read-out: δ receptor Ki): > 1000 nM; EC50 [1, 3]: 0.09 nM |
| CC(C)C[C@@H](NC(=O)[C@@H](Cc1ccccc1)NC(=O)N(C)C(CN)c1ccccc1)C(=O)N[C@H](CCCCN)C(=O)N1CCC2(CC1)CNC(=O)c1ncccc12 (stereo partly drawn) [Compound 32] | 0.58 nM | > 1000 nM | > 1000 nM | 0.65 nM | – |
| CC(C)C[C@@H](NC(=O)[C@@H](Cc1ccccc1)NC(=O)N(C)C(CN)c1ccccc1)C(=O)N[C@H](CCCCN)C(=O)N1CCS(=O)(=O)CC1 (stereo partly drawn) [Compound 36] | 0.98 nM | > 1000 nM | > 1000 nM | 0.35 nM | – |

Reference: US20250230129A1, “POLYAMIDE COMPOUNDS, METHOD FOR PREPARING SAME, AND MEDICAL USE THEREOF” (priority 2022, published 2025)
